Experiments:
[1] = biological target: T1, human kynurenine aminotransferase I (hKAT I) (Homo sapiens, UniProt Q16773); assay: co-crystal structure at […] Å; format: binding
T1 sequence (Q16773 1-422): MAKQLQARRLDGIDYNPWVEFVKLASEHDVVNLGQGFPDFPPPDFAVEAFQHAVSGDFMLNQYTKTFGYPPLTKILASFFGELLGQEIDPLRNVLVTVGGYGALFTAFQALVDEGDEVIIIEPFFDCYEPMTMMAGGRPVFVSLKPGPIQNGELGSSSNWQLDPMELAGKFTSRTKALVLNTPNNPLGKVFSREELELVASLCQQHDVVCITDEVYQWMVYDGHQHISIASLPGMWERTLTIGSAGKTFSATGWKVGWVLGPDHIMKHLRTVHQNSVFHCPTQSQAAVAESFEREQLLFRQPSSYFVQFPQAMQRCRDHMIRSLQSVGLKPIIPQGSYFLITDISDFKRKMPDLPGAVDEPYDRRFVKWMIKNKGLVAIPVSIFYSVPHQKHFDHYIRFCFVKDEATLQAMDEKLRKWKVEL

[2] = biological target: T1, human kynurenine aminotransferase I (hKAT I); assay: transamination assay, HPLC of KYNA; format: biochemical
[3] = biological target: T1, human kynurenine aminotransferase I (hKAT I); assay: transamination assay, HPLC of KYNA; format: biochemical; remark: listed apart in the source

In the case of NC(CO)(CO)CO [Tris], the “co-crystal structure at 1.50 Å (one of two subunits)” value [1] is reported as “Tris lies near the PLP cofactor and that the Tris amine does not form an external aldimine with PLP”.
For O=C(O)C(=O)Cc1c[nH]c2ccccc12 [indole-3-pyruvic acid], the “transamination assay, HPLC of KYNA (0.08-10 mM); competing substrate” value [2] was “Figure 6B shows the inhibitions of tryptophan and indole-3-pyruvic acid”.
With O=C(O)/C=C/c1c[nH]c2ccccc12 [trans-3-indoleacrylic acid] the “transamination assay, HPLC of KYNA (0.08-10 mM)” value [3] was “All six of the chemicals strongly inhibited hKAT I”.
For N[C@@H](Cc1c[nH]c2ccccc12)C(=O)O [tryptophan], the “transamination assay, HPLC of KYNA (0.08-10 mM); competing substrate” value [2] was “Figure 6B shows the inhibitions of tryptophan and indole-3-pyruvic acid”.

Reference: PMC2844090 (Journal of medicinal chemistry, 2009)
